This note sets out measurements from patent US6579900B2, “Anandamide amidase inhibitors as analgesic agents” (priority 1996, dated 2003).

Where two headings read alike, the source gives them in different places. Some results are limits rather than exact numbers.

The target in experiment [1] is T1, anandamide amidase (Rattus norvegicus, UniProt P97612).
T1 construct: Crude rat brain homogenate was obtained by decapitating female adult Sprague-Dawley rats, dissecting the desired tissue and homogenizing; from tissue; host or cells: crude brain homogenate of female adult Sprague-Dawley rats
T1 sequence (P97612 1-579): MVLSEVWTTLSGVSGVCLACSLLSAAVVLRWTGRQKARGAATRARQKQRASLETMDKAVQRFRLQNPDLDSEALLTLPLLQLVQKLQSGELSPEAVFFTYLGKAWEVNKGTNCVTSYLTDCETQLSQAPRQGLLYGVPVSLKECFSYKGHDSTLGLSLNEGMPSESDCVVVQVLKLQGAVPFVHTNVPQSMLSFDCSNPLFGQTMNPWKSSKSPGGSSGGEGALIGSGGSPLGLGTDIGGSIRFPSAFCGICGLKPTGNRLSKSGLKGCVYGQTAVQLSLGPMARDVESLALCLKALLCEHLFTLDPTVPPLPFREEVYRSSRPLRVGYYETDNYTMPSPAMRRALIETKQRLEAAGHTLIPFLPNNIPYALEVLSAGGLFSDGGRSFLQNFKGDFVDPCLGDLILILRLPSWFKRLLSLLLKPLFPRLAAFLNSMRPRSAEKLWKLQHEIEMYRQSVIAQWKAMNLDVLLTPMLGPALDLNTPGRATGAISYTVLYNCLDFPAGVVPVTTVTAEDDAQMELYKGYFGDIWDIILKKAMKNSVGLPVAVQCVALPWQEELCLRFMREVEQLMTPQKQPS
Put plainly: Anandamide amidase assay in vitro, crude rat brain homogenate. It counts as biochemical. As to the method:
The assay of the anandamide amidase in vitro was performed as described previously (Deutsch, D. G. and S. A. Chin, Biochem. Pharmacol. 46:791-796 (1993)). The indicated amount of each compound was preincubated in a buffer consisting of 300 μg of crude rat brain homogenate protein, 500 μg/ml fatty acid-free bovine serum albumin, in phosphate-buffered saline in a final volume of 1.0 ml, for 10 minutes at 37° C. Crude rat brain homogenate was obtained by decapitating female adult Sprague-Dawley rats, dissecting the desired tissue and homogenizing in five volumes of ice-cold TE (10 mM Tris-HCl, 1 mM EDTA, pH 7.6). Substrate (27.7 μM anandamide+0.2 μCi of 221 Ci/mmol [^3H]anandamide ([arachidonyl-5,6,8,9,11,12,14,15-^3H]ethanolamide)) (obtained from the National Institute on Drug Abuse) was then added and the samples incubated for 10 minutes. The reaction was quenched by the addition of chloroform:methanol (1:1) and enzyme activity was analyzed by TLC as described in Example 1.

Another experiment deals with T2, CB1 receptor (Rattus norvegicus, UniProt P20272).
T2 construct: brain membranes were prepared from frozen rat brains; from tissue; host or cells: membranes from frozen rat brains
T2 sequence (P20272 whole entry): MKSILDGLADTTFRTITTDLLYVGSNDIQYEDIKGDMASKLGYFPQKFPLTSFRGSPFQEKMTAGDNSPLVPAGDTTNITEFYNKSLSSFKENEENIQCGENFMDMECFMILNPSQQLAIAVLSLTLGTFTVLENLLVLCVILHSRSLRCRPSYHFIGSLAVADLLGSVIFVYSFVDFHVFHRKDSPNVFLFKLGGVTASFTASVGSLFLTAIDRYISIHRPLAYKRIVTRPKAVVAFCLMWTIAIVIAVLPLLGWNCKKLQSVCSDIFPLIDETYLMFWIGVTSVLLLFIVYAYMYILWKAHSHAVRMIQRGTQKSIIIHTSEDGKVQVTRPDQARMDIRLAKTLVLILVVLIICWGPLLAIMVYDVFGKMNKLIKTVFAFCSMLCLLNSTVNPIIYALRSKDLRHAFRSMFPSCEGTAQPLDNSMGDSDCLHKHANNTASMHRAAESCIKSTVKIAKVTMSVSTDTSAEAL
The following applies: rat brain membranes, FIG. 3; read-out: Ki in competition with [3H]CP-55940 binding to CB1.

Experiment [2] addresses T3, anandamide amidase (Mus musculus, UniProt O08914).
T3 construct: The assay of the anandamide amidase in intact neuroblastoma cells; endogenous in cells; host or cells: N18TG2 neuroblastoma cells
T3 sequence (O08914 1-579): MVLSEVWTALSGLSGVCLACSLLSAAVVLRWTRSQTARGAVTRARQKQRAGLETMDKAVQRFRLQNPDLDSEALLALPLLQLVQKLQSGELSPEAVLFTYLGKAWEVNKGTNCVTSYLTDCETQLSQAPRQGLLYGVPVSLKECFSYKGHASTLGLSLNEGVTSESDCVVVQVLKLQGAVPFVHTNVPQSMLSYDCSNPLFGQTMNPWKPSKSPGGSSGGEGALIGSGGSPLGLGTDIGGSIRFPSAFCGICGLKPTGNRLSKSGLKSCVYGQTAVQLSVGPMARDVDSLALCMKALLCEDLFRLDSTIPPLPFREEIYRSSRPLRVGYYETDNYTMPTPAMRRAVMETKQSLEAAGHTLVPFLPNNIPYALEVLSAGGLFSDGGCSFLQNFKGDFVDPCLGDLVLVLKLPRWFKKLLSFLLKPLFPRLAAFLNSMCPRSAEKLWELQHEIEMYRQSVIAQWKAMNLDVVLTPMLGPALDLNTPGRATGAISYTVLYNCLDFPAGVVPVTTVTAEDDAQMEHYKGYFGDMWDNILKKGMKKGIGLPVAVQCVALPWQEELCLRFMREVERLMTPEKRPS
Put plainly: Anandamide amidase assay in intact neuroblastoma cells ([3H]anandamide levels). It is filed as cell-based.
Procedure: The experiments were performed with 4×10^6 neuroblastoma cells (N18TG2)/6-cm dish. Experimental cells were incubated in 2 ml of media, consisting of Ham's F-12/Dulbecco's modified Eagle's medium (Life Technologies, Inc.) with penicillin, streptomycin, and gentamicin plus 10% bovine calf serum (HyClone, Logan, Utah), plus the indicated concentration of inhibitor for 20 minutes. All cells were grown at 37° in a humidified atmosphere containing 5% CO2 in air. [^3H]Anandamide (0.2 μCi of 221 Ci/mmol of [^3H]anandamide) was added and the incubation continued for 1 hour. Control cells contained no inhibitor. At the end of the incubation, the cells were washed once with cell culture media and removed from the plates, after a brief incubation with 2 ml of 0.05% trypsin in 0.53 mM EDTA solution at 37° C. The amounts of [^3H]anandamide, [^3H]phospholipids, and [^3H]arachidonate in the cells and media were quantified by liquid scintillation counting of the silica scraped from the appropriate areas of the plate after quenching the reaction with chloroform methanol (1:1), extraction of the sample from the organic phase, and TLC analysis on channeled silica gel-coated plates, with a solvent system consisting of the organic layer of an ethyl acetate:hexane:acetic acid:water (100:50:20:100) mixture.

The test system of a further experiment is male MF1 mice. Nature of the experiment: Tail flick test of analgesia ("rat flick test"). The following applies: mouse, in vivo.
[3] abbreviates: crude rat brain homogenate, 10 min preincubation at 37° C., read-out: IC50 for inhibition of anandamide amidase.

Procedure for CB1 receptor: The filters were treated with 0.1% sodium dodecyl sulfate prior to addition of scintillation mixture and counting in a liquid scintillation counter.

For `CCCCCCCCCCCCCCCCCCCCS(=O)(=O)F` [Arachidylsulfonyl fluoride, arachidylsulfonyl fluoride], on anandamide amidase [1] (crude rat brain homogenate), the “concentration at which effective inhibitor of anandamide amidase” value is reported as “less than 100 nM”.

On to `CCCCCCCCCCCCCCCCCCS(=O)(=O)F` [stearylsulfonyl fluoride], for which the concentration for half-maximal inhibition (IC50) on anandamide amidase [1] (setting [3]) was less than 10 nM.

arachidonyl trifluoromethyl ketone: the inhibition constant (Ki) at CB1 receptor was 1320 nM.

With `CCCCCCCCCCCCCCCCS(=O)(=O)F` [palmitylsulfonyl fluoride], at anandamide amidase [2] (10 nM inhibitor, intact neuroblastoma cells (N18TG2)), the “increase of the level of undegraded anandamide” value is on record as 55 fold. This compound displayed a half-maximal inhibitory concentration (IC50) against anandamide amidase [1] of less than 10 nM. The “analgesia (in words)” value in the experiment on male MF1 mice is reported as “induce analgesia”.

For `O=S(=O)(F)Cc1ccccc1` [phenylmethylsulfonyl fluoride, reference compound], the “concentration required to achieve comparable levels of anandamide amidase inhibition” value on anandamide amidase [2] (comparable to over 50% of radioactivity in anandamide, N18TG2 cells) is “greater than 10 micromolar”.

Turning to `CCCCCCCCCCCCCCS(=O)(=O)F` [myristylsulfonyl fluoride], the IC50 at anandamide amidase [1] (setting [3]) was less than 10 nM.

Turning to `CCCCCCCCCCCCS(=O)(=O)F` [laurylsulfonyl fluoride], at anandamide amidase [1] (setting [3]), the IC50 was less than 10 nM.
